# Read-outs that look alike come from different tables or passages of the source.
# Columns and labels:
# [1] = Pharmacokinetic study of 5 compounds in rat plasma after oral administration of Zuogui Pill extract (HPLC-MS/MS, noncompartmental analysis); format: in vivo, Female Sprague-Dawley rats; details: oral Zuogui Pill extract 1.5 mL/100 g; for Cmax / Tmax / half-life / CL/F / MRT last / MRT inf: female, Sprague-Dawley, rat, po, 1.5 mL/100 g; for Cmax / Tmax / half-life / AUC0–t / AUC0–∞ / t 1/2: n = 6; for CL/F: n = 6, read-out: CL_F_obs (converted); for MRT last: n = 6, read-out: MRT0–t; for MRT inf: n = 6, read-out: MRT0–∞
# Protocol: Female Sprague-Dawley rats (180–220 g) were purchased from Shanghai Laboratory Animal Centre (Shanghai, China). The rats were maintained in a standard environment (22 ± 1°C, 60 ± 10% relative humidity, and a 12 h light/dark cycle) for one week to acclimate and fed water and food ad libitum. Twenty-four rats were divided randomly into […] and treated through ovary enucleation to establish the model of osteoporosis. Ten weeks after operation, osteoporosis models of kidney-yang-deficiency and kidney-yin-deficiency were established by intramuscular injection of hydrocortisone (25 mg/kg) and intragastric administration of thyroxine suspension (160 mg/kg) for 10 days, respectively. The femur of two rats from each group was then stained with hematoxylin and eosin (H&E) to assess histopathological change. Also, the validation of osteoporosis kidney-yang-deficiency and kidney-yin-deficiency models was judged by detecting the level of cyclic adenosine monophosphate (cAMP) and cyclic guanosine monophosphate (cGMP) in rat plasma. Laboratory Animal Management and Ethics Committee of Zhejiang Chinese Medical University approved all animal treatments (ZSLL-2014-48).
# One hundred microliters of plasma was mixed with 100 μL of the IS solution, followed by 700 μL of methanol:acetonitrile (1 : 1). After 2 min of vortex mixing, the mixture was spun for 15 min at 8000 rpm and 4°C. The supernatants were collected and dried in a high-purity N2 environment. The residues were redissolved in 100 μL methanol and centrifuged for 15 min at 13000 rpm and 4°C. Finally, an aliquot of 10 μL supernatants was used to conduct the analysis.
# Four groups of rats were orally administered with Zuogui Pill extract at a dose of 1.5 mL/100 g. Then, 0.3 mL blood samples were collected from orbital veins at 0, 0.08, 0.17, 0.25, 0.5, 1, 2, 4, 6, 8, 12, and 24 h after administration, placed in an anticoagulant tube, and centrifuged for 15 min at 5000 rpm and 4°C. The plasma was prepared and stored at −20°C until analysis.
# Phoenix WinNonlin 6.4 software was used to estimate pharmacokinetic parameters using noncompartmental analysis. Furthermore, SPSS 26 software was used to compute comparisons of the pharmacokinetic data among the four groups according to a one-way ANOVA. The results are presented as mean ± SD.
# [2] = Stability of analytes in rat plasma (QC samples) under storage conditions; details: n = 5; for Stability, Room temperature for 4 h, Mean: 25°C; for Stability, Three freeze-thaw cycles, Mean: −20°C to 25°C
# Protocol: QC samples at three levels using five replicates were used to evaluate the stability under the following conditions: 4 h at room temperature (25°C), 24 h in autosampler (4°C), and three freeze-thaw cycles (−20°C to 25°C).
# [3] = osteoporosis rats (ovariectomized)
# [4] = osteoporotic rats with kidney-yang-deficiency
# [5] = osteoporotic rats with kidney-yin-deficiency
# [6] = high QC (800, 16000, 3200, 400, 40 ng/mL in the same order)
# [7] = low QC (2, 40, 8, 1, 0.1 ng/mL for chlorogenic acid, loganin, morroniside, aucubin, protocatechuic aldehyde)
# [8] = middle QC (40, 800, 160, 20, 2 ng/mL in the same order)
smiles,measurement,setting,value
"COC(=O)C1=CO[C@@H](O[C@@H]2O[C@H](CO)[C@@H](O)[C@H](O)[C@H]2O)[C@@H]2[C@H](C)O[C@@H](O)C[C@H]12 [Morroniside, morroniside]",Cmax,[1]; normal rats,1720 ± 410 ng/mL
same,Tmax,[1]; normal rats,0.29 ± 0.1 h
same,half-life,[1]; normal rats,3.66 ± 1.18 h
same,CL/F,[1]; normal rats,49.4 mL/min/kg
same,MRT last,[1]; normal rats,3.41 ± 0.33 h
same,MRT inf,[1]; normal rats,3.66 ± 0.48 h
same,Cmax,[1]; [3],1110 ± 163 ng/mL
same,Tmax,[1]; [3],0.26 ± 0.02 h
same,half-life,[1]; [3],2.4 ± 0.51 h
same,CL/F,[1]; [3],59.2 mL/min/kg
same,MRT last,[1]; [3],4.37 ± 0.43 h
same,MRT inf,[1]; [3],4.51 ± 0.38 h
same,Cmax,[1]; [4],1450 ± 337 ng/mL
same,Tmax,[1]; [4],0.19 ± 0.04 h
same,half-life,[1]; [4],3.83 ± 0.64 h
same,CL/F,[1]; [4],59.4 mL/min/kg
same,MRT last,[1]; [4],4.68 ± 0.24 h
same,MRT inf,[1]; [4],5.03 ± 0.33 h
same,Cmax,[1]; [5],1750 ± 321 ng/mL
same,Tmax,[1]; [5],0.24 ± 0.03 h
same,half-life,[1]; [5],2.9 ± 0.65 h
same,CL/F,[1]; [5],28.3 mL/min/kg
same,MRT last,[1]; [5],5.08 ± 0.74 h
same,MRT inf,[1]; [5],5.21 ± 0.78 h
same,AUC0–t,[1]; normal rats,2151.00 ± 498.88 h∗ng/mL
same,AUC0–∞,[1]; normal rats,2171.33 ± 509.45 h∗ng/mL
same,AUC0–t,[1]; [3],1724.77 ± 149.05 h∗ng/mL
same,AUC0–∞,[1]; [3],1741.55 ± 136.08 h∗ng/mL
same,AUC0–t,[1]; [4],1726.42 ± 217.11 h∗ng/mL
same,AUC0–∞,[1]; [4],1750.35 ± 215.20 h∗ng/mL
same,AUC0–t,[1]; [5],3764.53 ± 842.38^∗∗ h∗ng/mL
same,AUC0–∞,[1]; [5],3782.41 ± 832.52^∗∗ h∗ng/mL
same,"Stability, Room temperature for 4 h, Mean",[2]; [6],98.3%
same,"Stability, Room temperature for 4 h, Mean",[2]; [7],90.8%
same,"Stability, Room temperature for 4 h, Mean",[2]; [8],86.1%
same,"Stability, Autosampler at 4°C for 24 h, Mean",[2]; [6],95.0%
same,"Stability, Autosampler at 4°C for 24 h, Mean",[2]; [7],89.6%
same,"Stability, Autosampler at 4°C for 24 h, Mean",[2]; [8],87.6%
same,"Stability, Three freeze-thaw cycles, Mean",[2]; [6],89.8%
same,"Stability, Three freeze-thaw cycles, Mean",[2]; [7],93.0%
same,"Stability, Three freeze-thaw cycles, Mean",[2]; [8],91.5%
"O=Cc1ccc(O)c(O)c1 [Protocatechuic aldehyde, protocatechuic aldehyde]",Cmax,[1]; normal rats,18.9 ± 3.62 ng/mL
same,Tmax,[1]; normal rats,0.45 ± 0.1 h
same,half-life,[1]; normal rats,10.9 ± 4.48 h
same,CL/F,[1]; normal rats,12.5 mL/min/kg
same,MRT last,[1]; normal rats,5.14 ± 0.17 h
same,MRT inf,[1]; normal rats,15.8 ± 6.12 h
same,Cmax,[1]; [3],10.1 ± 1.99 ng/mL
same,Tmax,[1]; [3],0.3 h
same,half-life,[1]; [3],12 ± 4.69 h
same,CL/F,[1]; [3],21.3 mL/min/kg
same,MRT last,[1]; [3],5.52 ± 0.21 h
same,MRT inf,[1]; [3],17.8 ± 6.26 h
same,Cmax,[1]; [4],11.4 ± 1.31 ng/mL
same,half-life,[1]; [4],2.09 ± 0.89 h
same,CL/F,[1]; [4],50.5 mL/min/kg
same,MRT last,[1]; [4],2.55 ± 0.18 h
same,MRT inf,[1]; [4],3.5 ± 1.38 h
same,Cmax,[1]; [5],8.81 ± 1.61 ng/mL
same,Tmax,[1]; [5],0.17 ± 0.07 h
same,half-life,[1]; [5],2.2 ± 0.83 h
same,CL/F,[1]; [5],48.9 mL/min/kg
same,MRT last,[1]; [5],3.24 ± 0.37 h
same,MRT inf,[1]; [5],3.79 ± 0.79 h
same,AUC0–t,[1]; normal rats,64.15 ± 10.30^∗∗ h∗ng/mL
same,AUC0–∞,[1]; normal rats,119.88 ± 32.93^∗∗ h∗ng/mL
same,AUC0–t,[1]; [3],34.92 ± 2.37 h∗ng/mL
same,AUC0–∞,[1]; [3],72.28 ± 21.64 h∗ng/mL
same,AUC0–t,[1]; [4],24.70 ± 1.69^∗∗ h∗ng/mL
same,AUC0–∞,[1]; [4],28.68 ± 6.49^∗∗ h∗ng/mL
same,AUC0–t,[1]; [5],27.48 ± 3.10^∗∗ h∗ng/mL
same,AUC0–∞,[1]; [5],28.87 ± 2.69^∗∗ h∗ng/mL
same,"Stability, Room temperature for 4 h, Mean",[2]; [6],87.4%
same,"Stability, Room temperature for 4 h, Mean",[2]; [7],86.8%
same,"Stability, Room temperature for 4 h, Mean",[2]; [8],90.9%
same,"Stability, Autosampler at 4°C for 24 h, Mean",[2]; [6],85.9%
same,"Stability, Autosampler at 4°C for 24 h, Mean",[2]; [7],88.4%
same,"Stability, Autosampler at 4°C for 24 h, Mean",[2]; [8],89.3%
same,"Stability, Three freeze-thaw cycles, Mean",[2]; [6],89.5%
same,"Stability, Three freeze-thaw cycles, Mean",[2]; [7],90.8%
same,"Stability, Three freeze-thaw cycles, Mean",[2]; [8],83.4%
"O=C(/C=C/c1ccc(O)c(O)c1)O[C@@H]1C[C@](O)(C(=O)O)C[C@@H](O)[C@H]1O [Chlorogenic acid, chlorogenic acid]",Cmax,[1]; normal rats,346 ± 64 ng/mL
same,CL/F,[1]; normal rats,15.2 mL/min/kg
same,MRT last,[1]; normal rats,5.46 ± 0.48 h
same,MRT inf,[1]; normal rats,8.17 ± 1.46 h
same,Cmax,[1]; [3],279 ± 56.3 ng/mL
same,Tmax,[1]; [3],0.26 ± 0.02 h
same,half-life,[1]; [3],6.38 ± 1.96 h
same,CL/F,[1]; [3],17.3 mL/min/kg
same,MRT last,[1]; [3],6.78 ± 0.68 h
same,MRT inf,[1]; [3],9.72 ± 2.61 h
same,Cmax,[1]; [4],430 ± 98.5 ng/mL
same,CL/F,[1]; [4],29.5 mL/min/kg
same,MRT last,[1]; [4],4.52 ± 1.46 h
same,MRT inf,[1]; [4],6.56 ± 2.64 h
same,Cmax,[1]; [5],354 ± 83.8 ng/mL
same,half-life,[1]; [5],6.61 ± 3.84 h
same,CL/F,[1]; [5],37.1 mL/min/kg
same,MRT last,[1]; [5],3.03 ± 0.38 h
same,MRT inf,[1]; [5],4.1 ± 1.02 h
same,AUC0–t,[1]; normal rats,497.98 ± 34.72^∗ h∗ng/mL
same,AUC0–∞,[1]; normal rats,546.26 ± 38.80 h∗ng/mL
same,t 1/2,[1]; normal rats,8.17 ± 1.79 h
same,AUC0–t,[1]; [3],435.76 ± 59.78 h∗ng/mL
same,AUC0–∞,[1]; [3],489.67 ± 77.69 h∗ng/mL
same,AUC0–t,[1]; [4],263.13 ± 40.25^∗∗ h∗ng/mL
same,AUC0–∞,[1]; [4],284.31 ± 33.34^∗∗ h∗ng/mL
same,t 1/2,[1]; [4],5.41 ± 1.84 h
same,AUC0–t,[1]; [5],218.55 ± 23.29^∗∗ h∗ng/mL
same,AUC0–∞,[1]; [5],225.89 ± 25.03^∗∗ h∗ng/mL
same,"Stability, Room temperature for 4 h, Mean",[2]; [6],85.7%
same,"Stability, Room temperature for 4 h, Mean",[2]; [8],85.9%
same,"Stability, Autosampler at 4°C for 24 h, Mean",[2]; [6],87.3%
same,"Stability, Autosampler at 4°C for 24 h, Mean",[2]; [8],93.7%
same,"Stability, Three freeze-thaw cycles, Mean",[2]; [6],80.9%
same,"Stability, Three freeze-thaw cycles, Mean",[2]; [8],89.3%

# Reference: publication PMC10045483, “Comparative Pharmacokinetic Study of 5 Active Ingredients after Oral Administration of Zuogui Pill in Osteoporotic Rats with Different Syndrome Types” (International Journal of Analytical Chemistry, 2023)
